Experimental findings from patent US12234245B2, “Sulfonimidamide compounds as inhibitors of interleukin-1 activity” (Genentech, Inc., priority 2018, dated 2025) are described below.

Holding throughout (type): cell-based
Assay [1] deals with PBMCs. Description: CTG (CellTiter-Glo) viability assay in PBMCs. The conditions noted are these: LPS and nigericin stimulated. On the procedure:
(§1) Human peripheral blood mononuclear cells (PBMCs), consisting of lymphocytes (T, B and NK cells), monocytes and dendritic cells, were freshly isolated from human peripheral blood from healthy donors. Cells were obtained through an IRB approved donor program by iXCells Biotechnologies where all the donors were tested for bacterial and viral infections. Cells were purified from peripheral blood using ficoll gradient centrifugation.
(§2) Fresh or cryopreserved PMBCs were seeded in V-bottom 96-well plate at 0.5-1×10^5 cells per well and incubated overnight at 37° C. with 5% CO2 in RPMI 1640 medium with GlutaMAX supplement, 4.5 g/L D-glucose, 10% Fetal Bovine Serum (FBS), […] Sodium Pyruvate, 1% Penicillin/Streptomycin, 10 mM HEPES and 0.05 mM of β-mercaptoethanol. Freshly isolated or cryopreserved KCs cells were seeded in flat-bottom 96-well plates at 0.6-1.5×10^5 cells/well and incubated overnight at 37° C. 5% CO2 in RPMI 1640 Medium with GlutaMAX supplement, FBS, 1% Penicillin/Streptomycin and 10 mM HEPES. The following day, the cells were primed with 100 ng/mL of lipopolysaccharides (LPS; Sigma Aldrich) in FBS-free RPMI 1640 for 3 h. After the priming step, the media was removed and PBMCs were pre-incubated with serial concentrations of test compounds (0.00017-10 uM) or vehicle (DMSO) for 30 min in FBS-free media prior to addition of the NLRP3 activator. Cells were then stimulated with 10 uM Nigericin (Sigma Aldrich; InvivoGen) for 1.5 h. Plates were centrifuged at 1,500 rpm for 3 minutes to pellet cells and supernatant was transferred into new plates for subsequent experiments.
Viability of compound treated cells was measured using CellTiter-Glo® assay (Promega, Madison, Wis.) that measures the ATP content of cells which is proportional to the number of live cells within a well. This is a counter-screen to establish that the reduction of IL-1β levels in LPS and nigericin stimulated and compound treated cells is not due to cytotoxicity, but rather through the inhibition of the inflammasome pathway. Compounds inhibiting NRLP3 inflammasome activation ultimately increase the viability of LPS and nigericin stimulated cells by blocking NLRP3 mediated pyroptosis that would otherwise lead to cell lysis.

Assay [2] deals with TNFα. Description: TNFα counter-screen in LPS and nigericin stimulated PBMCs. The conditions noted are these: human PBMCs. On the procedure: as §1, §2
For ELISA assays cells were seeded into 96-well plates. Post study, supernatants were removed and the levels of mature IL-1β, IL18 and TNFα (Quantikine ELISA, R&D systems) were measured in cell conditioned media by ELISA according to manufacturer's instructions.
TNFα levels of LPS and nigericin stimulated cells were measured by HTRF assay (Cisbio, Bedford, MA). […] Measuring TNFalpha production also serves as a technical counter-screen to eliminate compounds that interfere with the HTRF reagents. Thus compounds that inhibit both IL-1β and TNFα levels are triaged for either being non-selective for inflammasome or interfering with the HTRF readout.
Background: The purpose of a counterscreen is to sort out artefacts and off-target activity.

The target of assay [3] is T1, NLRP3 inflammasome (Homo sapiens, UniProt Q96P20). Description: NLRP3 inflammasome activation assay in PBMCs, IL-1β release (ELISA / HTRF). Set-up: were freshly isolated from human peripheral blood from healthy donors; StemCells Technologies; host or cells: primary human PBMCs, LPS-primed, nigericin-stimulated. The following applies: LPS primed. In short, it runs like this: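 Human PBMCs primed with 100 ng/mL LPS for 3 h, pre-treated with compound for 30 min (0.00017–10 µM, or from 40 µM in 2-fold 20-point series), then stimulated with 10 µM nigericin for 1.5 h at 37 °C. Released IL-1β in supernatant quantified by ELISA or by HTRF (665/620 ratio, overnight RT).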
T1 sequence (Q96P20 whole entry): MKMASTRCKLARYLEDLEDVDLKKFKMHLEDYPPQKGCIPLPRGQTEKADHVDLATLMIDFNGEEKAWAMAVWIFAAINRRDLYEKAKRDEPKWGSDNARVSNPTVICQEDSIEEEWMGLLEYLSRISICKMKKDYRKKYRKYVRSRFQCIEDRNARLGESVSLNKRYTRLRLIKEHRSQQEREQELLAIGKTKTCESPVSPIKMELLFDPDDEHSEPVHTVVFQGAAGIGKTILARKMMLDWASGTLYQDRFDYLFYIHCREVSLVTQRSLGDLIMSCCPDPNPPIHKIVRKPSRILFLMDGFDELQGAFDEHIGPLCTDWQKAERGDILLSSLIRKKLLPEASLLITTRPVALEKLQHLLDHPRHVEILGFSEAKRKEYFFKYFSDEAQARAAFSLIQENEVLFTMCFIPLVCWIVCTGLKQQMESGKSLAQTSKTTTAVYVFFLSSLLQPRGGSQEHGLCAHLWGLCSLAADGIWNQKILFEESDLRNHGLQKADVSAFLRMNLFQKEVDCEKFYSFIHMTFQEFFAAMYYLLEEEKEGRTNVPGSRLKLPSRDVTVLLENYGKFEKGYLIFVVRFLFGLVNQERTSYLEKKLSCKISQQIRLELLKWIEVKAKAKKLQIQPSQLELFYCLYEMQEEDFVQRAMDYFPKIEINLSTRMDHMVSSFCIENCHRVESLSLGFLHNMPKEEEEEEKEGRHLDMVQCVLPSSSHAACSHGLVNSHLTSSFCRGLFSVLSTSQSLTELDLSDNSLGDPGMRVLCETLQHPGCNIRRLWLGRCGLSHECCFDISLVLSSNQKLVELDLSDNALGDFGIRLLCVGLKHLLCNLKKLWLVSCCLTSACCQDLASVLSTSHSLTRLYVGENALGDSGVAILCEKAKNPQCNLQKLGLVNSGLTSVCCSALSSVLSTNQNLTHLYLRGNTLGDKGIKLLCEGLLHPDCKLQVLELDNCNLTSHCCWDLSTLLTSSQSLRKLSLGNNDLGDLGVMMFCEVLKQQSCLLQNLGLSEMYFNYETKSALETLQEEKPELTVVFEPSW
For orientation: ELISA stands for enzyme-linked immunosorbent assay.

Assay [4] addresses T1, NLRP3 inflammasome. Description: THP-1 ASC-GFP speck assay. Set-up: host or cells: THP-1 ASC-GFP cells, PMA-differentiated, LPS-primed, nigericin-stimulated. The conditions noted are these: THP-1 ASC-GFP cells, PMA differentiated, LPS primed, 10 μM nigericin; read-out: THP1 ASC Speck IC50. An outline of the steps: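 PMA-differentiated (500 ng/ml, overnight) THP-1 ASC-GFP cells primed with 1 μg/mL LPS for 3 h, preincubated 30 min with compound (top 40 μM, 2-fold, 20 points), then stimulated with 10 μM nigericin for 90 min at 37 °C. After fixation and Hoechst staining, imaging gave the percentage of cells bearing a GFP ASC speck.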

Where [5] appears, read: PBMC, read-out: PBMC TNF α IC50.
Setting [6] is: 10 uM nigericin, read-out: PBMC IL-1 β IC50.
Setting [7] is: 10 μM nigericin, read-out: PBMC IL-1β IC50.
Setting [8] is: human PBMCs, read-out: PBMC CTG IC50.

Like-named read-outs stand apart in the source and are kept apart here.

The term IC50 denotes the point on the concentration scale where inhibition reaches its midpoint.

Consider `NS(=O)(=NC(=O)Nc1c2c(cc3c1CCC3)CCC2)c1cnn2c1OCCC2` (single isomer, unassigned) [drawing 661], for which the IC50 was under 100 nM in assay [1] (Homo sapiens, PBMC); over 10000 nM in assay [2] (setting [5]); under 100 nM in assay [3] (setting [6]).
As for `N=S(=O)(NC(=O)Nc1c2c(cc3c1CCC3)CCC2)c1cnn2c1OC[C@@H](NCCF)C2` (some centres unmarked), the IC50 in assay [1] (Homo sapiens, PBMC) was 100 to 1000 nM; in assay [2] (setting [5]) it was over 10000 nM; in assay [3] (setting [6]), under 100 nM.
Regarding `CN(C)[C@@H]1COc2c(S(=N)(=O)NC(=O)Nc3c4c(cc5c3CCC5)CCC4)cnn2C1` (some centres unmarked) [drawing 681], the IC50 was under 100 nM in assay [1] (Homo sapiens, PBMC); over 10000 nM in assay [2] (setting [5]); 100 to 1000 nM in assay [3] (setting [6]).
As for `NS(=O)(=NC(=O)Nc1c2c(c(F)c3c1CCC3)CCC2)c1cnn2c1OCCC2` (single isomer, unassigned) [drawing 669], the IC50 in assay [1] (Homo sapiens, PBMC) is under 100 nM; in assay [2] (setting [5]), over 10000 nM; in assay [3] (setting [6]), under 100 nM.
As for `CO[C@@H]1COc2c(S(N)(=O)=NC(=O)Nc3c4c(c(F)c5c3CCC5)CCC4)cnn2C1` (mixture of isomers) [Example 18, (6S)—N′-((8-fluoro-1,2,3,5,6,7-hexahydro-s-indacen-4-yl)carbamoyl)-6-methoxy-6,7-dihydro-5H-pyrazolo[5,1-b][1,3]oxazine-3-sulfonimidamide], the concentration for half-maximal inhibition (IC50) in assay [1] (Homo sapiens, PBMC) is 0.1 nM; in assay [2] (PBMC) it was over 10000 nM; in assay [3] (setting [7]), 16 nM.
In the case of `CO[C@@H]1COc2c(S(=N)(=O)NC(=O)Nc3c4c(cc5c3CCC5)CCC4)cnn2C1` (some centres unmarked) [drawing 667], the IC50 in assay [1] (Homo sapiens, PBMC) was 100 to 1000 nM; in assay [2] (setting [5]), over 10000 nM; in assay [3] (setting [6]), 100 to 1000 nM.
Turning to `Cn1ccc(S(N)(=O)=NC(=O)Nc2c3c(cc4c2CCC4)CCC3)n1` (racemic) [Example 12, N-((1,2,3,5,6,7-hexahydro-s-indacen-4-yl)carbamoyl)-1-methyl-1H-pyrazole-3-sulfonimidamide], the IC50 in assay [1] (Homo sapiens, PBMC) was 6 nM; in assay [2] (PBMC), over 10000 nM; in assay [3] (setting [7]), 1390 nM.
The like results for `CN[C@@H]1COc2c(S(N)(=O)=NC(=O)Nc3c(C(C)C)cc(F)cc3C(C)C)cnn2C1` (mixture of isomers) [Example 16, (6S)—N′-((4-fluoro-2,6-diisopropylphenyl)carbamoyl)-6-(methylamino)-6,7-dihydro-5H-pyrazolo[5,1-b][1,3]oxazine-3-sulfonimidamide] were, in that order, 131 nM, over 10000 nM and 270 nM.
For the molecule `CN[C@@H]1COc2c(S(N)(=O)=NC(=O)Nc3c4c(cc5c3CCC5)CCC4)cnn2C1` (mixture of isomers) [Example 17, (6S)—N′-((1,2,3,5,6,7-hexahydro-s-indacen-4-yl)carbamoyl)-6-(methylamino)-6,7-dihydro-5H-pyrazolo[5,1-b][1,3]oxazine-3-sulfonimidamide], the IC50 is 8 nM in assay [1] (Homo sapiens, PBMC); over 10000 nM in assay [2] (PBMC); 19 nM in assay [3] (setting [7]).
For `CN[C@@H]1COc2c(S(=N)(=O)NC(=O)Nc3c(C(C)C)cc(F)cc3C(C)C)cnn2C1` (single isomer, unassigned) [drawing 675], the IC50 in assay [1] (Homo sapiens, PBMC) is over 10000 nM; in assay [2] (setting [5]), over 10000 nM; in assay [3] (setting [6]), 100 to 1000 nM.
With `CN[C@@H]1COc2c(S(=N)(=O)NC(=O)Nc3c(C(C)C)cc(F)cc3C(C)C)cnn2C1` (single isomer, unassigned) [drawing 676], the IC50 in assay [2] (read-out: PBMC TNF α IC50) and in assay [3] (setting [6]) was over 10000 nM each time.
Take `CNC1COc2c(S(N)(=O)=NC(=O)Nc3c(C(C)C)cc(F)cc3C(C)C)cnn2C1` (single isomer, unassigned) [Example 28]: the IC50 was over 10000 nM in assay [2] (read-out: PBMC TNFα IC50), 4400 nM in assay [4] and over 10000 nM in assay [3] (setting [7]).
On to `CO[C@@H]1COc2c(S(=N)(=O)NC(=O)Nc3c(C(C)C)cc(F)cc3C(C)C)cnn2C1` (some centres unmarked) [drawing 671], for which the IC50 is under 100 nM in assay [1] (setting [8]), over 10000 nM in assay [2] (read-out: PBMC TNF α IC50) and 1000 to 10000 nM in assay [3] (setting [6]).
For `COC1COc2c(S(N)(=O)=NC(=O)Nc3c(C(C)C)cc(F)cc3C(C)C)cnn2C1` (single isomer, unassigned) [Example 24], the IC50 in assay [1] (setting [8]) was 127 nM; in assay [2] (read-out: PBMC TNFα IC50), over 10000 nM; in assay [3] (setting [7]) it was 240 nM.
For `N=S(=O)(NC(=O)Nc1c2c(c(F)c3c1CCC3)CCC2)c1cnn2c1OCCC2` (single isomer, unassigned) [drawing 670], the concentration for half-maximal inhibition (IC50) in assay [1] (setting [8]) is 100 to 1000 nM; in assay [2] (read-out: PBMC TNF α IC50) it was over 10000 nM; in assay [3] (setting [6]) it was 1000 to 10000 nM.
For the molecule `Cn1ccc(S(=N)(=O)NC(=O)Nc2c3c(cc4c2CCC4)CCC3)n1` (centres unmarked), the IC50 in assay [1] (Homo sapiens, PBMC) was under 100 nM; in assay [2] (setting [5]) it was over 10000 nM; in assay [3] (setting [6]), 1000 to 10000 nM.
Regarding `CO[C@@H]1COc2c(S(=N)(=O)NC(=O)Nc3c4c(c(F)c5c3CCC5)CCC4)cnn2C1` (some centres unmarked) [drawing 680], the IC50 is under 100 nM in assay [1] (setting [8]), over 10000 nM in assay [2] (read-out: PBMC TNF α IC50) and under 100 nM in assay [3] (setting [6]).
Take `NS(=O)(=NC(=O)Nc1c2c(c(C(=O)O)c3c1CCC3)CCC2)c1cnn2c1OCCC2` (centres unmarked): the IC50 in assay [1] (Homo sapiens, PBMC) was over 10000 nM; in assay [2] (setting [5]) it was over 10000 nM; in assay [3] (setting [6]), over 10000 nM.
`NS(=O)(=NC(=O)Nc1c2c(c(F)c3c1CCC3)CCC2)c1cnn2c1OCCC2` (single isomer, unassigned) [Example 21]: the concentration for half-maximal inhibition (IC50) in assay [1] (setting [8]) is 1050 nM; in assay [2] (PBMC) it was over 10000 nM; in assay [3] (setting [7]), 4720 nM.
As for `NS(=O)(=NC(=O)Nc1c2c(c(F)c3c1CCC3)CCC2)c1cnn2c1OCC2` (centres unmarked), the concentration for half-maximal inhibition (IC50) in assay [1] (Homo sapiens, PBMC) was 1000 to 10000 nM; in assay [2] (setting [5]), over 10000 nM; in assay [3] (setting [6]), under 100 nM.
Take `CO[C@@H]1COc2c(S(N)(=O)=NC(=O)Nc3c(C(C)C)cc(F)cc3C(C)C)cnn2C1` (mixture of isomers) [Example 15, (6S)—N′-((4-fluoro-2,6-diisopropylphenyl)carbamoyl)-6-methoxy-6,7-dihydro-5H-pyrazolo[5,1-b][1,3]oxazine-3-sulfonimidamide]: the IC50 in assay [1] (Homo sapiens, PBMC) was 95 nM; in assay [2] (PBMC), over 10000 nM; in assay [3] (setting [7]) it was 300 nM.
Consider `NS(=O)(=NC(=O)Nc1c2c(c(F)c3c1CCC3)CCC2)c1cnn2c1OCCCC2` (centres unmarked), for which the IC50 in assay [1] (Homo sapiens, PBMC) was over 10000 nM; in assay [2] (setting [5]), over 10000 nM; in assay [3] (setting [6]), under 100 nM.
Consider `N=S(=O)(NC(=O)Nc1c2c(cc3c1CCC3)CCC2)c1cnn2c1OCCC2` (single isomer, unassigned) [drawing 662], for which the IC50 in assay [1] (setting [8]) was under 100 nM; in assay [2] (read-out: PBMC TNF α IC50), over 10000 nM; in assay [3] (setting [6]), 1000 to 10000 nM.
For the molecule `CN(C)C1COc2c(S(N)(=O)=NC(=O)Nc3c4c(cc5c3CCC5)CCC4)cnn2C1` (single isomer, unassigned) [Example 34], the half-inhibitory concentration (IC50) was 4 nM in assay [1] (setting [8]), over 10000 nM in assay [2] (read-out: PBMC TNFα IC50) and 6 nM in assay [3] (setting [7]).
`CO[C@@H]1COc2c(S(=N)(=O)NC(=O)Nc3c(C(C)C)cc(F)cc3C(C)C)cnn2C1` (some centres unmarked) [drawing 663]: the IC50 is under 100 nM in assay [1] (Homo sapiens, PBMC); over 10000 nM in assay [2] (setting [5]); 100 to 1000 nM in assay [3] (setting [6]).
With `CN[C@@H]1COc2c(S(=N)(=O)NC(=O)Nc3c4c(cc5c3CCC5)CCC4)cnn2C1` (some centres unmarked) [drawing 665], the concentration for half-maximal inhibition (IC50) is under 100 nM in assay [1] (Homo sapiens, PBMC); over 10000 nM in assay [2] (setting [5]); under 100 nM in assay [3] (setting [6]).
